Measured values: US10238113B2, “Method for protecting plants from stress and senescence” (BEN-GURION UNIVERSITY OF THE NEGEV RESEARCH AND DEVELOPMENT …, priority 2008, dated 2019)

Key:
[1] = test system: leaf discs cut from Col and Atxdh mutants rosette leaves; assay: Leaf discs treated with purine catabolites under dark-induced stress, remaining chlorophyll; format: in vivo, Arabidopsis thaliana; conditions: for protection from chlorophyll degradation: 0.1 mM, applied 2 h after 48 h dark treatment, +/- allopurinol, Col and Atxdh mutants
Method: (§1) FIG. 8a: xanthine (1 mM) in the presence or absence of allopurinol (1 mM, +/−Allo), was applied for 48 h to leaf discs placed in the dark and photographed 24 h after being transferred to 16 h light/8 h dark regime (left upper panel). Remaining chlorophyll, xanthine, allantoin and allantoate were determined in leaf discs sampled at the beginning of the experiment (light) or after 72 h (as described above) without xanthine (dark). FIG. 8b: allantoin or allantoate (0.1 mM) in the presence or absence of allopurinol (1 mm, +/−Allo) was applied to leaf discs for 2 h in the dark after keeping the discs in the dark for 48 h. Discs were photographed 24 h after being transferred to 16 h light/8 h dark regime (left upper panel). Leaf discs were washed twice before sampling for xanthine, allantoin and allantoate determination (right and bottom panels). Bars show mean±SEM (n=16).
Cell death was visualized in leaves sampled from dark stressed and control unstressed plants, by lactophenol-trypan blue staining followed by destaining in saturated chloral hydrate (Koch E. and Slusarenko A. 1990 Plant Cell 2, 437-445). Total chlorophyll content was measured in extracts of the fully expanded leaves as described before (Brychkova et al., 2007, ibid). The values for remaining chlorophyll content in leaf discs were determined as the amount of chlorophyll per disc divided by the amount of chlorophyll per untreated control and expressed as a percentage. The severity of leaf damage after dark stress was as follows: 1, no damage; 2, <30%; 3, 30-50%; 4, >50% of the leaf area damaged. The average leaf damage was then multiplied by the total number of damaged leaves to determine the damage level. Means±SEM for each treatment are presented.
The dark-induced loss of chlorophyll and the accelerated cell death during recovery may be due to the accumulation of excess oxypurines (FIG. 5a) or to the lack of a protective environment provided by ureides (FIGS. 5b and 5c) or both. To examine this directly, leaf discs cut from Col and Atxdh mutants rosette leaves were treated with xanthine for 48 h in the dark and were sampled after 24 h in the light. […] The observations indicate that ureides may protect chlorophyll from degradation during dark treatment and the recovery period. To elucidate the role of allantoin and allantoate directly, leaf discs were treated with 0.1 mM allantoin or allantoate. […] Importantly, the protection by the ureides was afforded in spite of the significant accumulation of xanthine in allopurinol-treated Col plants and Atxdh mutants (FIG. 8b).

[2] = test system: leaf discs of Col and Ri plants; assay: DAB-H2O2 staining of leaf discs treated with allantoin or allantoate; format: in vivo, Arabidopsis thaliana; conditions: 0.1 mM for 2 h after 24 h dark
Method: (§2) FIGS. 9a-9c show reactive oxygen species (ROS) accumulation in the presence of allantoin and allantoate in Arabidopsis wild-type (Col) and xdh1 RNA interference (Ri) lines. FIG. 9a left panel: leaf discs removed from Col plants placed for 24 h in the dark in the presence or absence of allantoin or allantoate (0.1 mM) and then washed and treated with H2O2 (0, 20, 50 mM) for an additional 6 h in the dark. Right panel: remaining chlorophyll determined 24 h after the disc were transferred to a 16 h light/8 h dark regime. Bars show mean±SEM (n=16). […] Total H2O2 relative production (right insert) was quantified in leave discs kept in the dark for 24 h and then treated with allantoin or allantoate for additional 2 h in the dark, using DAB staining Results are from two independent experiments. Error bars indicate SE (n=16). The lower case letters (a, b) indicate P<0.001 for the differences within treatment between ecotypes. […] Leaf discs were treated and analyzed as in FIG. 9b above. Total relative superoxide production was quantified in leaf discs from 2 independent experiments. […]
(§3) Nitroblue tetrazolium (NBT) O2^− staining of leaves was performed essentially according to Jabs T. et al. (1996 Science 273, 1853-1856) and Fryer M. J. et al. (2002 J Exp Bot 53, 1249-1254). […] NBT and DAB stained leaves and leaf discs were quantified using NIH Image Software (Version 1.6). […]

[3] = test system: leaf discs of Col and Ri plants; assay: NBT-O2- staining of leaf discs treated with allantoin or allantoate; format: in vivo, Arabidopsis thaliana; conditions: 0.1 mM for 2 h after 24 h dark; Col lines
Method: as §2, §3

[4] = test system: Col wild type plants; assay: Xanthine determination in allopurinol-treated leaves/leaf discs during dark stress; format: in vivo, Arabidopsis thaliana; conditions: allopurinol applied to wild type plants
Method: as §1
Ureides were extracted from leaves with 80% ethanol and determined according to Vogels G. D. and Van Der Drift C. (1970 Anal Biochem 33, 143-157) using allantoic acid and allantoin as references. Six samples were analyzed and averaged for each data points. […] Hypoxanthine/xanthine were determined by high performance liquid chromatography (HPLC) using a 100×2.1 mm ID, ODS-Hypersil (5 μm) column. […] The hypoxanthine and xanthine were detected using standards retention time and UV absorption spectra ratio at 249 nm and 267 nm. […]

[5] = test system: Parsley leaf discs; assay: Allantoin application on senescence in parsley leaf discs exposed to dark stress, chlorophyll content; format: in vivo
Method: FIG. 14 relates to the influence of allantoin application on senescence in parsley leaf discs exposed to dark stress. Parsley leaf discs were kept for 2 days in the light and then transferred to the dark for additional 2 days with or without the addition of 0 to 10 mM allantoin. CL—control undetached leaves in the light.
Reference is also made to FIG. 14 showing that allantoin application prevents leaf spoilage in Parsley. Parsley leaf discs were kept for 2 days in the light and then for 2 days in the dark with or without the addition of 0 to 10 mM allantoin. Undetached leaves kept in the light served as control (CL). The influence of allantoin application on senescence in parsley was examined by measuring the chlorophyll content relative to the content in the control undeteched leaves.

[6] = test system: tomato leaf discs; assay: Allantoin application to tomato leaf discs, chlorophyll degradation; format: in vivo; conditions: 0.1 mM and 0.5 mM allantoin; discs 2 days dark then 2 days light

SMILES	protection from chlorophyll degradation [1]	reduction in DAB staining intensity (H2O2) [2]	NBT staining (superoxide) [3]	also measured
O=c1[nH]c(=O)c2[nH]cnc2[nH]1 [xanthine]				effect on chlorophyll ([1]; 1 mM xanthine, 48 h in the dark, sampled after 24 h in the light, Col and Ri leaf discs): caused a reduction in chlorophyll
NC(=O)NC(NC(N)=O)C(=O)O [allantoate]	protected the treated leaf discs from chlorophyll degradation	2 fold	significantly reduced staining	
Oc1ncnc2[nH]ncc12 [allopurinol, reference compound]				effect on xanthine-caused reduction in chlorophyll ([1]; allopurinol 1 mM in the presence of 1 mM xanthine, wild type and mutant Ri lines): exacerbated; xanthine accumulation [4]: led to xanthine accumulation
NC(=O)NC1NC(=O)NC1=O (stereo not drawn) [allantoin]	protected the treated leaf discs from chlorophyll degradation	2 fold	significantly reduced staining	prevention of chlorophyll loss (chlorophyll content relative to control undetached leaves) ([5]; 0.1-0.5 mM allantoin, 2 days light then 2 days dark): particularly effective in preventing the chlorophyll loss; protection of leaves from chlorophyll degradation and yellowing ([5]; 0.1-10 mM allantoin, summary of parsley and tomato leaf disc results): protects leaves from chlorophyll degradation and yellowing; chlorophyll degradation [6]: delayed the chlorophyll degradation
